{"source": "patent US20110118238A1", "about": "“2-ANILINOPURIN-8-ONES AS INHIBITORS OF TTK/MPS1 FOR THE TREATMENT OF PROLIFERATIVE DISORDERS” (ASTRAZENECA AB, priority 2007, published 2011)", "biological_target": "T1, N-terminal GST tagged full length human TTK kinase (Homo sapiens, UniProt P33981)", "T1 construct": "N-terminal GST tagged full length human TTK kinase; GST (N); made in house; host or cells: insect cells", "T1 sequence (P33981 1-857)": "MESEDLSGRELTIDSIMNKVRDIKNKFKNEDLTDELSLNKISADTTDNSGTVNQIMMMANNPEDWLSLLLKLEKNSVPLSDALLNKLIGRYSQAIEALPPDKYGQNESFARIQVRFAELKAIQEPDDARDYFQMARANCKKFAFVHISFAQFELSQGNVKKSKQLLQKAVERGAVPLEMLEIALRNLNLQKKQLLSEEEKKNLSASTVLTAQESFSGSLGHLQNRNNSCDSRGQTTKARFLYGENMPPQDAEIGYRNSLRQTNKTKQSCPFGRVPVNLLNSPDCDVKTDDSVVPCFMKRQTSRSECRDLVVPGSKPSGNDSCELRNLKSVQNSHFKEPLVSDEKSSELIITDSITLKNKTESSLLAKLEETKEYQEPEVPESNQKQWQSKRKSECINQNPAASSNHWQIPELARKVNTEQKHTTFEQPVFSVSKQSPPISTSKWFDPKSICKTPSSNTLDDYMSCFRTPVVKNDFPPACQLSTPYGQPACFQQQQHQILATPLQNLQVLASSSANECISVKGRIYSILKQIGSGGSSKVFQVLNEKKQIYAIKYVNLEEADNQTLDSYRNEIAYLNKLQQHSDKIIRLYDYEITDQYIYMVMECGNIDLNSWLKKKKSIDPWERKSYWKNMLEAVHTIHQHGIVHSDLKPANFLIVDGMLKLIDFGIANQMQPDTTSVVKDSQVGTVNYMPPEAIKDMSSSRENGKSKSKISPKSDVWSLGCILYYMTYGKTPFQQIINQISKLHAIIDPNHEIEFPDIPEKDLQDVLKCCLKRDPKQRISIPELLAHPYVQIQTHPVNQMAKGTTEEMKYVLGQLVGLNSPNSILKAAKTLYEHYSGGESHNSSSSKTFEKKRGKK", "experiment": "In Vitro TTK Kinase Assay 2 (Caliper LabChip LC3000)", "format": "biochemical", "conditions": "recombinant TTK, 12 μM ATP, read-out: EAA2: Enzyme Assay Activity (In Vitro TTK kinase assay 2)", "method": "Each reaction was stopped by the addition of EDTA to a concentration of 40 mM in a solution which also comprised 0.1% coating reagent (Caliper LS), 100 mM HEPES pH 7.5, 0.015% v/v Brij™-35 and 5% DMSO. The stopped enzyme reactions were sipped through capillaries onto a Caliper chip where the peptide substrate and phosphorylated product were separated and detected via laser-induced fluorescence."}
{"smiles": "CC(C)n1c(=O)n(C)c2cnc(Nc3ccc(C(=O)NC4CCN(C)CC4)c(F)c3)nc21", "note": "[Example 39, 2-Fluoro-4-[(9-isopropyl-7-methyl-8-oxo-8,9-dihydro-7H-purin-2-yl)-amino]-N-(1-methylpiperidin-4-yl)benzamide]", "values": [{"measurement": "IC50", "result": 2460, "unit": "nM"}]}
{"smiles": "COc1cc(C(=O)NC2CCN(C)CC2)ccc1Nc1ncc2c(n1)n(C(C)C)c(=O)n2C", "note": "[Example 40, 4-[(9-Isopropyl-7-methyl-8-oxo-8,9-dihydro-7H-purin-2-yl)amino]-3-methoxy-N-(1-methylpiperidin-4-yl)benzamide]", "values": [{"measurement": "IC50", "result": 338, "unit": "nM"}]}
{"smiles": "CNC(=O)c1ccc(Nc2ncc3c(n2)n(C(C)C)c(=O)n3C)c(OC)c1", "note": "[Example 41, 4-[(9-Isopropyl-7-methyl-8-oxo-8,9-dihydro-7H-purin-2-yl)amino]-3-methoxy-N-methylbenzamide]", "values": [{"measurement": "IC50", "result": 7130, "unit": "nM"}]}
{"smiles": "COc1cc(OC2CCN(C)CC2)ccc1Nc1ncc2c(n1)n(C(C)C)c(=O)n2C", "note": "[Example 42, 9-Isopropyl-2-({2-methoxy-4-[(1-methylpiperidin-4-yl)oxy]phenyl}-amino)-7-methyl-7,9-dihydro-8H-purin-8-one]", "values": [{"measurement": "IC50", "result": 68.8, "unit": "nM"}]}
{"smiles": "COc1cc(OC2CCN(C)C2)ccc1Nc1ncc2c(n1)n(C(C)C)c(=O)n2C", "note": "(stereo not shown) [Example 43, 9-Isopropyl-2-({2-methoxy-4-[(1-methylpyrrolidin-3-yl)oxy]-phenyl}amino)-7-methyl-7,9-dihydro-8H-purin-8-one]", "values": [{"measurement": "IC50", "result": 115, "unit": "nM"}]}
{"smiles": "COc1cc(N2CCN(C)CC2)ccc1Nc1ncc2c(n1)n(C(C)C)c(=O)n2C", "note": "[Example 44, 9-Isopropyl-2-{[2-methoxy-4-(4-methylpiperazin-1-yl)phenyl]-amino}-7-methyl-7,9-dihydro-8H-purin-8-one]", "values": [{"measurement": "IC50", "result": 119, "unit": "nM"}]}
{"smiles": "CCN1CCN(c2ccc(Nc3ncc4c(n3)n(C(C)C)c(=O)n4C)c(OC)c2)CC1", "note": "[Example 45, 2-{[4-(4-Ethylpiperazin-1-yl)-2-methoxyphenyl]amino}-9-isopropyl-7-methyl-7,9-dihydro-8H-purin-8-one]", "values": [{"measurement": "IC50", "result": 109, "unit": "nM"}]}
{"smiles": "CCOc1cc(N2CCN(C)CC2)ccc1Nc1ncc2c(n1)n(C(C)C)c(=O)n2C", "note": "[Example 46, 2-{[2-Ethoxy-4-(4-methylpiperazin-1-yl)phenyl]amino}-9-isopropyl-7-methyl-7,9-dihydro-8H-purin-8-one]", "values": [{"measurement": "IC50", "result": 144, "unit": "nM"}]}
{"smiles": "COc1cc(N2CCCN(C)CC2)ccc1Nc1ncc2c(n1)n(C(C)C)c(=O)n2C", "note": "[Example 48, 9-Isopropyl-2-{[2-methoxy-4-(4-methyl-1,4-diazepan-1-yl)phenyl]-amino}-7-methyl-7,9-dihydro-8H-purin-8-one]", "values": [{"measurement": "IC50", "result": 136, "unit": "nM"}]}
{"smiles": "COc1cc(C(=O)O)ccc1Nc1ncc2c(n1)n(C1CCCC1)c(=O)n2C", "note": "[Example 49, 4-[(9-Cyclopentyl-7-methyl-8-oxo-8,9-dihydro-7H-purin-2-yl)-amino]-3-methoxybenzoic acid]", "values": [{"measurement": "IC50", "result": 72.4, "unit": "nM"}]}
{"smiles": "COc1cc(C(=O)N2CCN(C)CC2)ccc1Nc1ncc2c(n1)n(C1CCCC1)c(=O)n2C", "note": "[Example 50, 9-Cyclopentyl-2-({2-methoxy-4-[(4-methylpiperazin-1-yl)carbonyl]-phenyl}amino)-7-methyl-7,9-dihydro-8H-purin-8-one]", "values": [{"measurement": "IC50", "result": 60.3, "unit": "nM"}]}
{"smiles": "COc1cc(C(=O)N2CCN(C3CCN(C)CC3)CC2)ccc1Nc1ncc2c(n1)n(C1CCCC1)c(=O)n2C", "note": "[Example 51, 9-Cyclopentyl-2-[(2-methoxy-4-{[4-(1-methylpiperidin-4-yl)-piperazin-1-yl]-carbonyl}phenyl)amino]-7-methyl-7,9-dihydro-8H-purin-8-one]", "values": [{"measurement": "IC50", "result": 148, "unit": "nM"}]}
{"smiles": "COc1cc(C(=O)NCCCn2ccnc2)ccc1Nc1ncc2c(n1)n(C1CCCC1)c(=O)n2C", "note": "[Example 52, 4-[(9-Cyclopentyl-7-methyl-8-oxo-8,9-dihydro-7H-purin-2-yl)-amino]-N-[3-(1H-imidazol-1-yl)propyl]-3-methoxybenzamide]", "values": [{"measurement": "IC50", "result": 41.2, "unit": "nM"}]}
{"smiles": "COc1cc(C(=O)N(C)CC2CCN(C(C)C)C2)ccc1Nc1ncc2c(n1)n(C1CCCC1)c(=O)n2C", "note": "(stereo not shown) [Example 53, 4-[(9-Cyclopentyl-7-methyl-8-oxo-8,9-dihydro-7H-purin-2-yl)-amino]-N-[(1-isopropylpyrrolidin-3-yl)methyl]-3-methoxy-N-methylbenzamide]", "values": [{"measurement": "IC50", "result": 231, "unit": "nM"}]}
{"smiles": "COc1cc(C(=O)N(C)CCCN(C)C)ccc1Nc1ncc2c(n1)n(C1CCCC1)c(=O)n2C", "note": "[Example 54, 4-[(9-Cyclopentyl-7-methyl-8-oxo-8,9-dihydro-7H-purin-2-yl)-amino]-N-[3-(dimethylamino)propyl]-3-methoxy-N-methylbenzamide]", "values": [{"measurement": "IC50", "result": 36.2, "unit": "nM"}]}
{"smiles": "COc1cc(C(=O)N2CC[C@@H](N(C)C)C2)ccc1Nc1ncc2c(n1)n(C1CCCC1)c(=O)n2C", "note": "[Example 55, 9-Cyclopentyl-2-[(4-{[(3R)-3-(dimethylamino)pyrrolidin-1-yl]-carbonyl}-2-methoxyphenyl)amino]-7-methyl-7,9-dihydro-8H-purin-8-one]", "values": [{"measurement": "IC50", "result": 17.5, "unit": "nM"}]}
{"smiles": "COc1cc(C(=O)N2CCC(N3CCCC3)CC2)ccc1Nc1ncc2c(n1)n(C1CCCC1)c(=O)n2C", "note": "[Example 56, 9-Cyclopentyl-2-({2-methoxy-4-[(4-pyrrolidin-1-ylpiperidin-1-yl)-carbonyl]phenyl}amino)-7-methyl-7,9-dihydro-8H-purin-8-one]", "values": [{"measurement": "IC50", "result": 67.6, "unit": "nM"}]}
{"smiles": "COCCN1CCN(C(=O)c2ccc(Nc3ncc4c(n3)n(C3CCCC3)c(=O)n4C)c(OC)c2)CC1", "note": "[Example 57, 9-Cyclopentyl-2-[(2-methoxy-4-{[4-(2-methoxyethyl)piperazin-1-yl]-carbonyl}phenyl)amino]-7-methyl-7,9-dihydro-8H-purin-8-one]", "values": [{"measurement": "IC50", "result": 35.6, "unit": "nM"}]}
{"smiles": "COc1cc(C(=O)NC2CCC(N(C)C)CC2)ccc1Nc1ncc2c(n1)n(C1CCCC1)c(=O)n2C", "note": "(stereo not shown) [Example 58]", "values": [{"measurement": "IC50", "result": 136, "unit": "nM"}]}
{"smiles": "COCCN1CCC(NC(=O)c2ccc(Nc3ncc4c(n3)n(C3CCCC3)c(=O)n4C)c(OC)c2)CC1", "note": "[Example 59, 4-[(9-Cyclopentyl-7-methyl-8-oxo-8,9-dihydro-7H-purin-2-yl)-amino]-3-methoxy-N-[1-(2-methoxyethyl)piperidin-4-yl]benzamide]", "values": [{"measurement": "IC50", "result": 74.5, "unit": "nM"}]}
{"smiles": "CCN1CCCC1CNC(=O)c1ccc(Nc2ncc3c(n2)n(C2CCCC2)c(=O)n3C)c(OC)c1", "note": "(stereo not shown) [Example 60, 4-[(9-Cyclopentyl-7-methyl-8-oxo-8,9-dihydro-7H-purin-2-yl)-amino]-N-[(1-ethylpyrrolidin-2-yl)methyl]-3-methoxybenzamide]", "values": [{"measurement": "IC50", "result": 114, "unit": "nM"}]}
{"smiles": "COc1cc(C(=O)NCCCCN(C)C)ccc1Nc1ncc2c(n1)n(C1CCCC1)c(=O)n2C", "note": "[Example 61, 4-[(9-Cyclopentyl-7-methyl-8-oxo-8,9-dihydro-7H-purin-2-yl)-amino]-N-[4-(dimethylamino)butyl]-3-methoxybenzamide]", "values": [{"measurement": "IC50", "result": 53.6, "unit": "nM"}]}
{"smiles": "COc1cc(C(=O)NCCCN(C)C)ccc1Nc1ncc2c(n1)n(C1CCCC1)c(=O)n2C", "note": "[Example 62, 4-[(9-Cyclopentyl-7-methyl-8-oxo-8,9-dihydro-7H-purin-2-yl)-amino]-N-[3-(dimethylamino)propyl]-3-methoxybenzamide]", "values": [{"measurement": "IC50", "result": 50.9, "unit": "nM"}]}
{"smiles": "COc1cc(C(=O)NCCN2CCCCC2)ccc1Nc1ncc2c(n1)n(C1CCCC1)c(=O)n2C", "note": "[Example 63, 4-[(9-Cyclopentyl-7-methyl-8-oxo-8,9-dihydro-7H-purin-2-yl)-amino]-3-methoxy-N-(2-piperidin-1-ylethyl)benzamide]", "values": [{"measurement": "IC50", "result": 66.4, "unit": "nM"}]}
{"smiles": "COc1cc(C(=O)NCCN2CCN(C)CC2)ccc1Nc1ncc2c(n1)n(C1CCCC1)c(=O)n2C", "note": "[Example 64, 4-[(9-Cyclopentyl-7-methyl-8-oxo-8,9-dihydro-7H-purin-2-yl)-amino]-3-methoxy-N-[2-(4-methylpiperazin-1-yl)ethyl]benzamide]", "values": [{"measurement": "IC50", "result": 61.1, "unit": "nM"}]}
{"smiles": "COc1cc(C(=O)N(C)C)ccc1Nc1ncc2c(n1)n(C1CCCC1)c(=O)n2C", "note": "[Example 65, 4-[(9-Cyclopentyl-7-methyl-8-oxo-8,9-dihydro-7H-purin-2-yl)-amino]-3-methoxy-N,N-dimethylbenzamide]", "values": [{"measurement": "IC50", "result": 27, "unit": "nM"}]}
{"smiles": "COc1cc(C(=O)NCCCCN2CCCC2)ccc1Nc1ncc2c(n1)n(C1CCCC1)c(=O)n2C", "note": "[Example 66, 4-[(9-Cyclopentyl-7-methyl-8-oxo-8,9-dihydro-7H-purin-2-yl)-amino]-3-methoxy-N-(4-pyrrolidin-1-ylbutyl)benzamide]", "values": [{"measurement": "IC50", "result": 132, "unit": "nM"}]}
{"smiles": "COc1cc(C(=O)NCCN(C)C)ccc1Nc1ncc2c(n1)n(C1CCCC1)c(=O)n2C", "note": "[Example 67, 4-[(9-Cyclopentyl-7-methyl-8-oxo-8,9-dihydro-7H-purin-2-yl)-amino]-N-[2-(dimethylamino)ethyl]-3-methoxybenzamide]", "values": [{"measurement": "IC50", "result": 119, "unit": "nM"}]}
